Laboratory results from patent US20240092770A1, “Heterocycle RMB39 Modulators” (Recursion Pharmaceuticals, Inc., priority 2022, published 2024).

The molecules below were run against RBM39 and the DCAF15 complex (RBM39-Flag / His-DCAF15-DDA1-DDB1) (Homo sapiens (Human), UniProt Q14498+Q66K64) (assay: DCAF15 RBM39 complex formation TR-FRET assay). Conditions: RBM39(R150-D331) 3xFlag 50 nM, His-DCAF15-DDA1-DDB1 10 nM, 60 min room temperature.
Format: binding
Protocol: A TR-FRET assay was used to assess the effect of compounds disclosed herein on the interaction between RBM39 and the DCAF15 complex. Test compounds were dissolved to form a 10 mM DMSO stock solution. A 45 μL aliquot of the stock solution was transferred to a 384 pp-plate, and a threefold, 8-point dilution was performed via transferring 15 μL compound solution into 30 μL of DMSO. The plates were then spun at room temperature at 1,000 RPM for 1 minute.
A 30 nL aliquot of the diluted compound was transferred to a 384 well plate, which was incubated at room temperature for 15 minutes. Next, Solutions 1, 2, and 3 were prepared as described in the below tables. A 5 μL aliquot of Solution 2 was added to each well, followed by 5 μL of Solution 3 to start the reaction. The final volume of each well was 10 μL. The plates were incubated at room temperature for 60 minutes, and then read.
Next, an RBM39 (R150-D331) 3× Flag used in TR-FRET assay was prepared:
Recombinant RBM39 protein is composed of the R1R2 of RBM39 (aa 150 to 331; UniProt: Q14498). The coding sequence was sub-cloned into pGEX4T-1-RBM39-flag vector, expressed as a GST-fusion protein with N-terminal TEV protease cleavage site. A 3× Flag tag was added to the C-terminal of R1R2 used in a FRET assay.

| EC50 | Compound |
| --- | --- |
| 1030 nM | Cc1ccc(NS(=O)(=O)c2nccs2)c2[nH]cc(C#N)c12 [Compound 2] |
| 429 nM | Cc1ccc(NS(=O)(=O)c2ncc(Cl)s2)c2[nH]cc(C#N)c12 [Compound 3] |
| 106 nM | Cc1ccc(NS(=O)(=O)c2cnc(Cl)s2)c2[nH]cc(C#N)c12 [Compound 7] |
| 787 nM | CCc1nc(S(=O)(=O)Nc2ccc(C)c3c(C#N)c[nH]c23)c[nH]1 [Compound 8, N-(3-cyano-4-methyl-1H-indol-7-yl)-2-ethyl-1H-imidazole-4-sulfonamide] |
| 436 nM | Cc1cnc(S(=O)(=O)Nc2ccc(C)c3c(C#N)c[nH]c23)s1 [Compound 9] |
| 75.7 nM | Cc1sc(S(=O)(=O)Nc2ccc(C)c3c(C#N)c[nH]c23)nc1C#N [Compound 10] |
| 108 nM | Cc1sc(S(=O)(=O)Nc2ccc(C)c3c(C#N)c[nH]c23)nc1Br [Compound 11] |
| 384 nM | Cc1ccc(NS(=O)(=O)c2nc(C(F)(F)F)cs2)c2[nH]cc(C#N)c12 [Compound 12, N-(3-cyano-4-methyl-1H-indol-7-yl)-4-(trifluoromethyl)-1,3-thiazole-2-sulfonamide] |
| 298 nM | Cc1ccc(NS(=O)(=O)c2nc(Br)cs2)c2[nH]cc(C#N)c12 [Compound 13] |
| 269 nM | Cc1ccc(NS(=O)(=O)c2cnc(C(F)(F)F)s2)c2[nH]cc(C#N)c12 [Compound 24] |
| 2800 nM | N#Cc1c[nH]c2c(NS(=O)(=O)c3nccs3)cccc12 [Compound 27] |
| 136 nM | Cc1ccc(NS(=O)(=O)c2ncc(-c3cccnc3)s2)c2[nH]cc(C#N)c12 [Compound 32] |
| 301 nM | N#Cc1c[nH]c2c(NS(=O)(=O)c3cnc(C(F)(F)F)s3)cccc12 [Compound 34] |
| 354 nM | Cc1ccc(NS(=O)(=O)c2ncc(-c3ccncc3)s2)c2[nH]cc(C#N)c12 [Compound 36] |
| 427 nM | Cc1ccc(NS(=O)(=O)c2ncc(-c3ccccn3)s2)c2[nH]cc(C#N)c12 [Compound 37] |
| 4190 nM | CCc1nc(S(=O)(=O)Nc2cccc3c(C#N)c[nH]c23)c[nH]1 [Compound 38] |
| 520 nM | Cc1ccc(NS(=O)(=O)c2c[nH]c(C(C)C)n2)c2[nH]cc(C#N)c12 [Compound 39] |
| 275 nM | Cc1ccc(NS(=O)(=O)c2cnc(Br)s2)c2[nH]cc(C#N)c12 [Compound 40] |
| 363 nM | Cc1ccc(NS(=O)(=O)c2nc(CCO)cs2)c2[nH]cc(C#N)c12 [Compound 41] |
| 55.2 nM | Cc1ccc(NS(=O)(=O)c2cncs2)c2[nH]cc(C#N)c12 [Compound 42] |
| > 30000 nM | Cc1noc(C)c1S(=O)(=O)Nc1ccc(C)c2c(C#N)c[nH]c12 [Compound 43] |
| 904 nM | Cc1ccc(NS(=O)(=O)c2ncc(CCO)s2)c2[nH]cc(C#N)c12 [Compound 44] |
| 394 nM | Cc1ccc(NS(=O)(=O)c2ncc(-c3ccncn3)s2)c2[nH]cc(C#N)c12 [Compound 45] |
| 97 nM | Cc1ccc(NS(=O)(=O)c2csc(C(F)(F)F)n2)c2[nH]cc(C#N)c12 [Compound 47] |
| 125 nM | Cc1ncc(S(=O)(=O)Nc2ccc(C)c3c(C#N)c[nH]c23)s1 [Compound 48] |

| EC50 | Compound |
| --- | --- |
| 190 nM | N#Cc1c[nH]c2c(NS(=O)(=O)c3csc(C(F)(F)F)n3)cccc12 [Compound 49] |
| 966 nM | N#Cc1c[nH]c2c(NS(=O)(=O)c3cncs3)cccc12 [Compound 50, N-(3-cyano-1H-indol-7-yl)thiazole-5-sulfonamide] |
| 164 nM | Cc1ncc(S(=O)(=O)Nc2cccc3c(C#N)c[nH]c23)s1 [Compound 51] |
| 302 nM | Cc1sc(S(=O)(=O)Nc2cccc3c(C#N)c[nH]c23)nc1Br [Compound 55] |
| > 30000 nM | Cc1ccc(NS(=O)(=O)c2nc(C(=O)O)cs2)c2[nH]cc(C#N)c12 [Compound 57] |
| 1080 nM | CNC(=O)c1csc(S(=O)(=O)Nc2ccc(C)c3c(C#N)c[nH]c23)n1 [Compound 58] |
| 802 nM | Cc1ccc(NS(=O)(=O)c2nc(C(=O)N(C)C)cs2)c2[nH]cc(C#N)c12 [Compound 59] |
| 1360 nM | Cc1ccc(NS(=O)(=O)c2nc(C(=O)N3CCCC3)cs2)c2[nH]cc(C#N)c12 [Compound 60] |
| 1790 nM | Cc1ccc(NS(=O)(=O)c2nc(C(=O)N3CCOCC3)cs2)c2[nH]cc(C#N)c12 [Compound 61] |
| 1170 nM | Cc1ccc(NS(=O)(=O)c2cscn2)c2[nH]cc(C#N)c12 [Compound 63] |
| 3440 nM | N#Cc1c[nH]c2c(NS(=O)(=O)c3cscn3)cccc12 [Compound 64] |
| 1080 nM | N#Cc1c[nH]c2c(NS(=O)(=O)c3nc(Br)cs3)cccc12 [Compound 65] |
| 520 nM | Cc1ccc(NS(=O)(=O)c2ncc(-c3cncnc3)s2)c2[nH]cc(C#N)c12 [Compound 67] |
| 708 nM | Cc1ccc(NS(=O)(=O)c2ncc(-c3ccnnc3)s2)c2[nH]cc(C#N)c12 [Compound 68] |
| 421 nM | Cc1ccc(NS(=O)(=O)c2ncc(-c3cc[nH]n3)s2)c2[nH]cc(C#N)c12 [Compound 69] |
| 338 nM | Cc1ccc(NS(=O)(=O)c2ncc(-c3cn[nH]c3)s2)c2[nH]cc(C#N)c12 [Compound 70] |
| 532 nM | Cc1ccc(NS(=O)(=O)c2ncc(-c3cocn3)s2)c2[nH]cc(C#N)c12 [Compound 71] |
| 432 nM | Cc1ccc(NS(=O)(=O)c2nc(C(N)=O)cs2)c2[nH]cc(C#N)c12 [Compound 72] |
| 738 nM | CCN(CC)C(=O)c1csc(S(=O)(=O)Nc2ccc(C)c3c(C#N)c[nH]c23)n1 [Compound 73] |
| 1450 nM | Cc1ccc(NS(=O)(=O)c2nc(C(=O)NCCO)cs2)c2[nH]cc(C#N)c12 [Compound 74] |
| 2180 nM | COCCNC(=O)c1csc(S(=O)(=O)Nc2ccc(C)c3c(C#N)c[nH]c23)n1 [Compound 75] |
| 3320 nM | Cc1ccc(NS(=O)(=O)c2nc(C(=O)N3CCC(O)C3)cs2)c2[nH]cc(C#N)c12 (centres unmarked) [Compound 76] |
| 828 nM | Cc1ccc(NS(=O)(=O)c2nc(C(=O)N3CCCCC3)cs2)c2[nH]cc(C#N)c12 [Compound 77] |
| 3250 nM | Cc1ccc(NS(=O)(=O)c2nc(C(=O)N3CCNCC3)cs2)c2[nH]cc(C#N)c12 [Compound 78] |
| 9710 nM | Cc1ccc(NS(=O)(=O)c2nc(C(=O)N3CCN(C)CC3)cs2)c2[nH]cc(C#N)c12 [Compound 79] |

| EC50 | Compound |
| --- | --- |
| 55.6 nM | Cc1ccc(NS(=O)(=O)c2cc(C3CC3)no2)c2[nH]cc(C#N)c12 [Compound 81] |
| 1440 nM | Cc1nc(S(=O)(=O)Nc2ccc(C)c3c(C#N)c[nH]c23)c(C)s1 [Compound 82] |
| 105 nM | Cc1ccc(NS(=O)(=O)c2onc(C3CC3)c2Cl)c2[nH]cc(C#N)c12 [Compound 83] |
| 175 nM | COc1ncc(S(=O)(=O)Nc2ccc(C)c3c(C#N)c[nH]c23)s1 [Compound 84] |
| 95.9 nM | CCc1ncc(S(=O)(=O)Nc2ccc(C)c3c(C#N)c[nH]c23)s1 [Compound 85] |
| 2070 nM | Cc1nocc1S(=O)(=O)Nc1ccc(C)c2c(C#N)c[nH]c12 [Compound 86] |
| 277 nM | N#Cc1c[nH]c2c(NS(=O)(=O)c3cc(C4CC4)no3)cccc12 [Compound 87] |
| 174 nM | N#Cc1c[nH]c2c(NS(=O)(=O)c3onc(C4CC4)c3Cl)cccc12 [Compound 89] |
| 389 nM | COc1ncc(S(=O)(=O)Nc2cccc3c(C#N)c[nH]c23)s1 [Compound 90] |
| 76.6 nM | CCc1ncc(S(=O)(=O)Nc2cccc3c(C#N)c[nH]c23)s1 [Compound 91] |
| 1520 nM | Cc1scnc1S(=O)(=O)Nc1ccc(C)c2c(C#N)c[nH]c12 [Compound 93] |
| 45.2 nM | Cc1ccc(NS(=O)(=O)c2cc(C(C)(C)C)no2)c2[nH]cc(C#N)c12 [Compound 94] |
| 104 nM | Cc1ccc(NS(=O)(=O)c2csc(C(F)F)n2)c2[nH]cc(C#N)c12 [Compound 95] |
| 105 nM | Cc1ccc(NS(=O)(=O)c2cnc(C3CC3)o2)c2[nH]cc(C#N)c12 [Compound 97] |
| 196 nM | Cc1ncc(S(=O)(=O)Nc2ccc(C)c3c(C#N)c[nH]c23)o1 [Compound 98] |
| 518 nM | Cc1nc(Br)sc1S(=O)(=O)Nc1ccc(C)c2c(C#N)c[nH]c12 [Compound 99] |
| 364 nM | Cc1ccc(NS(=O)(=O)c2cnc(C(C)(C)C)o2)c2[nH]cc(C#N)c12 [Compound 100] |
| > 30000 nM | O=S(=O)(Nc1cccc2cn[nH]c12)c1nccs1 [Compound 102] |
| 128 nM | CC(C)(C)c1cc(S(=O)(=O)Nc2cccc3c(C#N)c[nH]c23)on1 [Compound 104] |
| 299 nM | N#Cc1c[nH]c2c(NS(=O)(=O)c3csc(C(F)F)n3)cccc12 [Compound 105] |
| 325 nM | N#Cc1c[nH]c2c(NS(=O)(=O)c3cnc(C4CC4)o3)cccc12 [Compound 107, N-(3-cyano-1H-indol-7-yl)-2-cyclopropyl-1,3-oxazole-5-sulfonamide] |
| 1970 nM | Cc1ncc(S(=O)(=O)Nc2cccc3c(C#N)c[nH]c23)o1 [Compound 108] |
| 2070 nM | Cc1nc(Br)sc1S(=O)(=O)Nc1cccc2c(C#N)c[nH]c12 [Compound 109] |
| 729 nM | CC(C)(C)c1ncc(S(=O)(=O)Nc2cccc3c(C#N)c[nH]c23)o1 [Compound 110] |
